Experimental data published in PubChem BioAssay (NCI).
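96-well plates; 48 h exposure; 5 concentrations. Endpoints by linear interpolation between flanking doses. Not reached: highest tested concentration assigned. Here, GI50 denotes the concentration required for 50% inhibition of growth. At the TGI there is no net growth.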

Key:
Assay in all cases: growth of human tumour cells (NCI), 48 h
RPMI-8226 leukemia = test system: RPMI-8226 leukemia
M14 melanoma = test system: M14 melanoma
LOX IMVI melanoma = test system: LOX IMVI melanoma
HT29 colon = test system: HT29 colon
MDA-MB-231 breast = test system: MDA-MB-231 breast
NCI-H522 lung = test system: NCI-H522 lung
MDA-MB-435 = test system: MDA-MB-435
PC-3 prostate = test system: PC-3 prostate
OVCAR-4 ovarian = test system: OVCAR-4 ovarian
SK-MEL-28 melanoma = test system: SK-MEL-28 melanoma
SK-MEL-2 melanoma = test system: SK-MEL-2 melanoma
MALME-3M melanoma = test system: MALME-3M melanoma
SF-268 CNS = test system: SF-268 CNS
ACHN renal = test system: ACHN renal
HCC-2998 colon = test system: HCC-2998 colon
UACC-62 melanoma = test system: UACC-62 melanoma
SF-295 CNS = test system: SF-295 CNS
SF-539 CNS = test system: SF-539 CNS
SK-MEL-5 melanoma = test system: SK-MEL-5 melanoma
RXF 393 renal = test system: RXF 393 renal
OVCAR-3 ovarian = test system: OVCAR-3 ovarian
SNB-75 CNS = test system: SNB-75 CNS
NCI-H460 lung = test system: NCI-H460 lung
SNB-19 CNS = test system: SNB-19 CNS
COLO 205 colon = test system: COLO 205 colon
HL-60(TB) leukemia = test system: HL-60(TB) leukemia
SK-OV-3 ovarian = test system: SK-OV-3 ovarian
HS 578T breast = test system: HS 578T breast
HOP-92 NSCLC = test system: HOP-92 NSCLC
EKVX NSCLC = test system: EKVX NSCLC
HCT-116 colon = test system: HCT-116 colon
A549 NSCLC = test system: A549 NSCLC
U251 CNS = test system: U251 CNS
HCT-15 colon = test system: HCT-15 colon
IGROV1 ovarian = test system: IGROV1 ovarian
CAKI-1 renal = test system: CAKI-1 renal
SW-620 colon = test system: SW-620 colon
786-0 renal = test system: 786-0 renal
A498 renal = test system: A498 renal
T-47D breast = test system: T-47D breast
OVCAR-5 ovarian = test system: OVCAR-5 ovarian
SN12C renal = test system: SN12C renal
BT-549 breast = test system: BT-549 breast
K-562 leukemia = test system: K-562 leukemia
MCF7 breast = test system: MCF7 breast
TK-10 renal = test system: TK-10 renal
NCI-H23 lung = test system: NCI-H23 lung
KM12 colon = test system: KM12 colon
NCI-H226 lung = test system: NCI-H226 lung
SR leukemia = test system: SR leukemia
UO-31 renal = test system: UO-31 renal
HOP-62 NSCLC = test system: HOP-62 NSCLC
OVCAR-8 ovarian = test system: OVCAR-8 ovarian
NCI/ADR-RES ovarian = test system: NCI/ADR-RES ovarian
UACC-257 melanoma = test system: UACC-257 melanoma
CCRF-CEM leukemia = test system: CCRF-CEM leukemia
DU-145 prostate = test system: DU-145 prostate

CCCCCCCCCCCCCCCCNC(=O)OC(C)C
GI50 (RPMI-8226 leukemia): 5.22 µM | TGI (RPMI-8226 leukemia): 40.8 µM | GI50 (M14 melanoma): 3.5 µM | TGI (M14 melanoma): 14.4 µM | GI50 (LOX IMVI melanoma): 1.61 µM | TGI (LOX IMVI melanoma): 2.97 µM | GI50 (HT29 colon): 1.65 µM | TGI (HT29 colon): 3.12 µM | GI50 (MDA-MB-231 breast): 2.37 µM | TGI (MDA-MB-231 breast): 5.41 µM | GI50 (NCI-H522 lung): 2.01 µM | TGI (NCI-H522 lung): 4.62 µM | GI50 (MDA-MB-435): 2.55 µM | TGI (MDA-MB-435): 6.93 µM | GI50 (PC-3 prostate): 2.45 µM | TGI (PC-3 prostate): 7.53 µM | GI50 (OVCAR-4 ovarian): 2.01 µM | TGI (OVCAR-4 ovarian): 4.37 µM | GI50 (SK-MEL-28 melanoma): 13.5 µM | TGI (SK-MEL-28 melanoma): 27.1 µM | GI50 (SK-MEL-2 melanoma): 2.43 µM | TGI (SK-MEL-2 melanoma): 6.15 µM | GI50 (MALME-3M melanoma): 2.89 µM | TGI (MALME-3M melanoma): 9.24 µM | GI50 (SF-268 CNS): 2.73 µM | TGI (SF-268 CNS): 8 µM | GI50 (ACHN renal): 2.16 µM | TGI (ACHN renal): 5.24 µM | GI50 (HCC-2998 colon): 2.56 µM | TGI (HCC-2998 colon): 6.22 µM | GI50 (UACC-62 melanoma): 6.04 µM | TGI (UACC-62 melanoma): 19 µM | GI50 (SF-295 CNS): 2.11 µM | TGI (SF-295 CNS): 5.81 µM | GI50 (SF-539 CNS): 5.15 µM | TGI (SF-539 CNS): 12.7 µM | GI50 (SK-MEL-5 melanoma): 12.3 µM | TGI (SK-MEL-5 melanoma): 27.8 µM | GI50 (RXF 393 renal): 8.07 µM | TGI (RXF 393 renal): 26.6 µM | GI50 (OVCAR-3 ovarian): 1.99 µM | TGI (OVCAR-3 ovarian): 3.89 µM | GI50 (SNB-75 CNS): 5.74 µM | TGI (SNB-75 CNS): 18.1 µM | GI50 (NCI-H460 lung): 1.11 µM | TGI (NCI-H460 lung): 2.46 µM | GI50 (SNB-19 CNS): 5.48 µM | TGI (SNB-19 CNS): 16.3 µM | GI50 (COLO 205 colon): 1.95 µM | TGI (COLO 205 colon): 3.61 µM | GI50 (HL-60(TB) leukemia): 2.01 µM | TGI (HL-60(TB) leukemia): 5.56 µM | GI50 (SK-OV-3 ovarian): 5.7 µM | TGI (SK-OV-3 ovarian): 14.3 µM | GI50 (HS 578T breast): 2.19 µM | TGI (HS 578T breast): 16.5 µM | GI50 (HOP-92 NSCLC): 3.02 µM | TGI (HOP-92 NSCLC): 13.7 µM | GI50 (EKVX NSCLC): 2.35 µM | TGI (EKVX NSCLC): 6.44 µM | GI50 (HCT-116 colon): 1.96 µM | TGI (HCT-116 colon): 4.17 µM | GI50 (A549 NSCLC): 1.95 µM | TGI (A549 NSCLC): 3.82 µM | GI50 (U251 CNS): 1.96 µM | TGI (U251 CNS): 3.67 µM | GI50 (HCT-15 colon): 2.35 µM | TGI (HCT-15 colon): 6.79 µM | GI50 (IGROV1 ovarian): 2.27 µM | TGI (IGROV1 ovarian): 5 µM | GI50 (CAKI-1 renal): 2.03 µM | TGI (CAKI-1 renal): 4.75 µM | GI50 (SW-620 colon): 1.46 µM | TGI (SW-620 colon): 2.87 µM | GI50 (786-0 renal): 9.38 µM | TGI (786-0 renal): 29.4 µM | GI50 (A498 renal): 0.37 µM | TGI (A498 renal): 5.95 µM | GI50 (T-47D breast): 3.79 µM | TGI (T-47D breast): 12.6 µM | GI50 (OVCAR-5 ovarian): 2.81 µM | TGI (OVCAR-5 ovarian): 8.39 µM | GI50 (SN12C renal): 4.53 µM | TGI (SN12C renal): 17 µM | GI50 (BT-549 breast): 21.9 µM | TGI (BT-549 breast): 55.9 µM | GI50 (K-562 leukemia): 2.14 µM | TGI (K-562 leukemia): 5.86 µM | GI50 (MCF7 breast): 1.88 µM | TGI (MCF7 breast): 3.53 µM | GI50 (TK-10 renal): 2.09 µM | TGI (TK-10 renal): 4.48 µM | GI50 (NCI-H23 lung): 3.04 µM | TGI (NCI-H23 lung): 10.3 µM | GI50 (KM12 colon): 1.83 µM | TGI (KM12 colon): 3.5 µM | GI50 (NCI-H226 lung): 3.56 µM | TGI (NCI-H226 lung): 14.1 µM | GI50 (SR leukemia): 1.56 µM | TGI (SR leukemia): 5.01 µM | GI50 (UO-31 renal): 1.54 µM | TGI (UO-31 renal): 3.38 µM | GI50 (HOP-62 NSCLC): 5.11 µM | TGI (HOP-62 NSCLC): 11.2 µM | GI50 (OVCAR-8 ovarian): 3.82 µM | TGI (OVCAR-8 ovarian): 18 µM | GI50 (NCI/ADR-RES ovarian): 3.34 µM | TGI (NCI/ADR-RES ovarian): 13.6 µM | GI50 (UACC-257 melanoma): 13.2 µM | TGI (UACC-257 melanoma): 28.8 µM | GI50 (CCRF-CEM leukemia): 2.31 µM | TGI (CCRF-CEM leukemia): 6.2 µM | GI50 (DU-145 prostate): 1.81 µM | TGI (DU-145 prostate): 3.41 µM
